From patent publication US20060229284A1, “Enhanced occlusive effect photodynamic therapy” (priority 2004, published 2006)

Assays:
[1] = test system: subfoveal choroidal neovascularization (CNV); conditions: cases followed for 3 months after a single PDT treatment; cited from earlier work
[2] = test system: choroidal neovascularization (CNV); conditions: after re-treatment; cited from earlier work
[3] = test system: choroidal neovascularization (CNV); conditions: cited from earlier work
classic CNV = conditions: 3 months after initial PDT treatment; cited from earlier work
[4] = test system: neovasculature of the eye (advanced AMD); assay: Clinical trial of PDT with Talaporfin Sodium and 664 nm laser light in 9 human subjects with advanced AMD; assay type: in vivo
Description: A clinical trial of 9 human subjects with advanced AMD was arranged. The 9 subjects were each treated with PDT using Talaporfin Sodium, and a laser light at 664 nm wavelength as the excitation light source. The Table as provided in FIG. 1 describes the results of and details of the PDT procedures performed on the 9 subjects.

skin = conditions: systemic administration, clinical use; cited from earlier work

Question: For verteporfin, which “cases with progression of classic CNV beyond the area of CNV identified before treatment” value [1] is on record?
Answer: 51%

Question: And the “leakage activity compared to baseline leakage” value [2]?
Answer: appeared to be reduced

Question: And the “subject eyes that maintained CNV closure” value ([3]; after 1 week)?
Answer: 83%

Question: And the eyes showing closure ([3]; after 5 weeks)?
Answer: 9%

Question: What about the “eyes showing leakage had recommenced” value ([3]; after 5 weeks, excluding one eye removed from test data) of the same compound?
Answer: 91%

Question: And the “eyes scheduled for retreatment” value (classic CNV)?
Answer: 90.8%

Question: And the “eyes with classic CNV present that displayed leakage from classic CNV again” value (classic CNV)?
Answer: 92.8%

Question: For C=Cc1c(C)c2cc3nc(c(CC(=O)N[C@@H](CC(=O)O)C(=O)O)c4[nH]c(cc5nc(cc1[nH]2)C(C)=C5CC)c(C)c4C(=O)O)[C@@H](CCC(=O)O)[C@@H]3C [Talaporfin Sodium, mono-L-aspartyl-chlorin e6], which “extended period of enhanced neovasculature occlusive effect” value ([4]; most patients of 9 subjects, laser light 664 nm) is on record?
Answer: ≥ 15 weeks

Question: And the “retina and leakage after treatment” value ([4]; subjects 1 and 3, who had leakage causing serious elevation of the retina)?
Answer: the retina appeared more flat and leakage had apparently ceased

Question: What about the “re-opening of treated vessels during subsequent observations” value ([4]; subjects studied, FIG. 1) of the same compound?
Answer: no indication of re-opening of vessels

Question: With CCOC(=O)C1=Cc2c3nc(cc4nc(cc5[n-]c(cc6[n-]c2c(C)c6CC)c(C)c5CC)C(C)=C4CC)[C@@H](C)[C@]13CC.[Cl-].[Cl-].[Sn] (racemic) [Purlytin] as the compound, how does the “duration of skin photosensitivity” value (skin) read?
Answer: several weeks

Question: With Oc1cccc(-c2c3nc(c(-c4cccc(O)c4)c4ccc([nH]4)c(-c4cccc(O)c4)c4nc(c(-c5cccc(O)c5)c5ccc2[nH]5)CC4)C=C3)c1 [Foscan] as the compound, how does the “duration of skin photosensitivity” value (skin) read?
Answer: several weeks

Question: With sodium porfimer [Photophrine] as the compound, how does the “duration of skin photosensitivity” value (skin) read?
Answer: up to 6 weeks
